According to patent US7705191B2, “Hydrofluoroalkyl phenols having anesthetic properties” (University of Iowa Research Foundation, priority 2006, dated 2010):

How the values were obtained:
rat = assay: Loss of righting reflex / anesthesia after intravenous injection in rats; assay type: in vivo; settings: for onset of loss of righting reflex: two rats; for duration of anesthesia / loss of righting reflex: 10 mg/kg i.v. bolus
Method: For Examples 2 and 3, compounds were administered into the […] of the rat. The vehicle was 12-16% Cremophor EL dissolved in saline. The purity of each compound was approximately 96%.
Compound 1 was synthesized as described in Example 1. Approximately 15 mg/ml of the suspension were injected into the lateral tail vein of two rats (weight 300-320 g). […] The loss of righting reflex lasted for about 4 to 5 minutes. Upon awaking, the animals became active (e.g., started exploring behavior, walking, chewing, etc.).
Compound 3 (prepared as in Example 1) was formulated in Cremophor EL at a concentration of 10 mg/ml. Compound 3 was injected into the lateral tail vein of two rats at a dose of 10 mg/kg.

GABA receptors = assay: In vitro assay of direct activation of GABA receptors; assay type: cell-based; settings: FIG. 2
From the text: FIG. 2 is a graph showing the direct activation of GABA receptors by phenolic compounds.
Propofol and analogs are known to activate GABA receptors (see, e.g., Trapani et al., J. Med. Chem. 1998, 41, 1846-1854, incorporated herein by reference). While the relationship between GABA activation and anesthetic activity is not completely clear, it is believed that the ability of a compound to directly activate GABA receptors may be related to the anesthetic, sedative, and/or anxiolytic activity of the compound. Compounds of the invention can be tested in vitro electrophysiological assays to determine the ability of the compound to activate GABA receptors.
Certain compounds were tested in an in vitro assay to determine whether the compounds were capable of direct activation of GABA receptors.

[1] = lateral tail vein injection, approximately 15 mg/ml suspension

For `CC(C)c1cccc(CC(F)(F)F)c1O` [Compound 1, 2-isopropyl-6-(2,2,2-trifluoroethyl) phenol], the “response to tail pinching during loss of righting reflex” value (rat; [1]) was “did not respond to tail pinching”, the “shaking or tremors during induction or recovery” value (rat; [1]) was “did not exhibit shaking or tremors” and the “onset of loss of righting reflex” value (rat; lateral tail vein injection, approximately 15 mg/ml suspension, Cremophor EL/saline vehicle) was “immediately lost their righting reflex”. The “direct activation of GABA receptors” value (GABA receptors) was “found to have activity”.
For `CC(C)c1cc(C(O)C(F)(F)F)cc(C(C)C)c1O` (stereo not shown) [MB003, 2,6-Diisopropyl-4-(2,2,2-trifluoro-1-hydroxy-ethyl)-phenol], the “direct activation of GABA receptors” value (GABA receptors) was “found to have activity”.
In the case of `CC(C)c1cccc(C(C)C)c1O` [Propofol, 2,6-diisopropylphenol, reference compound], the “duration of anesthesia / loss of righting reflex” value (rat) is reported as 7.5 min.
In the case of `CC(C)c1cccc(C(C)C(F)(F)F)c1O` (stereo not shown) [Compound 3, 2-isopropyl-6-(1-trifluoromethyl)ethyl phenol], the “duration of anesthesia / loss of righting reflex” value (rat) is reported as “approximately 10 min”, the “potency relative to propofol” value (rat; 10 mg/kg, inferred from duration of loss of righting reflex) is reported as “more potent than propofol” and the “onset of loss of righting reflex” value (rat; lateral tail vein injection, 10 mg/kg, 10 mg/ml in Cremophor EL) is reported as “immediately lost their righting reflex”. For the same molecule, the “direct activation of GABA receptors” value (GABA receptors) was “found to have activity”.
